Data as given in patent US9125937B2, “Labelled analogues of halobenzamides as multimodal radiopharmaceuticals and their precursors” (INSTITUT NATIONAL DE LA SANTE ET DE LA RECHERCHE MEDICALE …, priority 2008, dated 2015).
Where “and” joins values, the source holds several entries; their conditions need not be identical. Equal values may be shown once. Where a name gives a salt, the structure may show the parent alone.

Key:
B16 F0 murine melanoma = test: Biodistribution study by planar scintigraphic imaging (gamma camera), tumour uptake quantification; assay type: in vivo, C57BL6 male mice; settings: i.v.
Description: (§1) Tumour Implantation. For transplantation, cells grown in monolayer culture to confluence were trypsinized and washed with phosphate buffer saline (PBS). They were resuspended in PBS and each mouse received 0.1 mL subcutaneously (3×10^5 cells) on the left flank in order to allow a tumour growth on the body side. Ten days later, the tumours became palpable with a percentage of tumour take of 98-100%.
The in vivo biodistribution and kinetic profile of each radiolabelled (iodine-125) compound have been studied in C57BL6 male mice bearing the B16 F0 murine melanoma by repeated planar scintigraphic imaging which allows the tumour uptake follow-up in the same animal.
Gamma Camera. In vivo radionuclide imaging was performed using a γ IMAGER (Biospace Mesures, Paris, France) especially dedicated for small animal, a scintigraphic camera with a continuous 4 mm thick×120 mm diameter CsI(Na) crystal, a position-sensitive Hamamatsu R3292 photomultiplier and a 10 cm field of view.
Imaging Protocol. On day 14 after tumour implantation (tumour weight 0.25±0.10 g) each [^125I]-radioiodinated compound was administered intravenously via a tail vein (0.1 μmol, range 3.7 to 7 MBq/animal) in three mice for each compound. At different times after administration (1, 3, 6, 24, 72 hours, 5, 7, 10 and 15 days), mice were anesthetized with 0.2 mL, for a 20 g mouse, of a ketamine-xylazine mixture in saline (1-0.25 mL for 5 mL) by i. p. administration, and repeated planar scintigraphic whole body imaging (mouse laying in anterior position on the camera field) were performed by an acquisition time of 10 min. For this study, the camera was equipped with a 1.8/0.2/20 collimator (hole diameter/septum thickness/height in mm).
Tumoural Radioactivity Quantification Approach. The injected activity to each mouse was determined from scintigraphic imaging of the syringe before and after the injection using the γ-IMAGER.
Regions of interest (ROIs) were delineated over the whole body image: whole body uptake area (or the various fixing areas, eyes, thyroid and abdomen) and one for the tumour uptake area. In the various ROIs, the activity (cpm) was quantified using the Biospace measures γ VISION+software. These values were normalized to the injected dose. For the tumour, the activity was also normalized to the tumour weight. Firstly, the volume was calculated from the two dimensions caliper measurement (Bissery, M. C.; Guenard, D.; Gueritte-Voegelin, F.; Lavelle, F. Experimental antitumour activity of taxotere (RP 56976, NSC 628503) a taxol analogue. Cancer res. 1991, 51, 4845-4852). Secondly, the weight was determined from the volume value corrected by a factor determined from a large panel of experiments (Weight g=volume mm^3×0.6). The data were expressed as % ID/g of B 16F0 melanoma tumour.

B16F0 melanoma tumour [1] = test: Tumour uptake by counting of tumour tissue after dissection (gamma counter); assay type: in vivo, mice
From the text: (§2) (iii) For the compound N-(2-diethylaminoethyl)-6-iodoquinoxaline-2-carboxamide, which is described in PCT application n°PCT/IB2007/052992 as compound n°45 in table I of said patent application (hereinafter called “ICF01012”), the tumour uptake has been quantified by 3 methods: camera imaging, autoradiography and counting of tumour tissue after dissection (gamma counter), values are summarized below.

B16F0 melanoma tumour [2] = test: Tumour uptake by whole body sectioning autoradiography; assay type: in vivo, mice
From the text: (ii) A comparison camera quantified in vivo values with values determined using the whole body sectioning conventional autoradiographic method has been done for several compounds. The correlation coefficient obtained between the two methods was 0.92.
as §2

[3] = tested on: subcutaneous B16F0 melanoma; test: Radionuclide therapy experiment (anti-tumoural efficacy); assay type: in vivo, C57BL/6J mice
Description: Animals. All experiments were carried out in accordance with the institution recommendations based on the guide for the care and use of laboratory animals. For therapy experiment, we used 6- to 8-week-old C57BL/6J male mice (Charles River Laboratories).
as §1
[^131I]11 treatment was administered intravenously at days 6 and 10 after tumour implantation (2×18.5 MBq) in groups of 10 mice. In the same conditions untreated-animals were studied. From three days before the treatment and along the experiment, lugol's iodine solution was added in the two mice groups alimentation to block iodine thyroid uptake. To monitor tumoral growth, tumor volume in mm^3 was calculated twice a week from the measurement of two perpendicular diameters using a caliper according to the formula L×S^2/2 where L and S are the largest and smallest diameters in mm respectively. At day 19 of the experiment, mice were sacrificed. Tumours were removed, dissected and weighted.
Statistical Analyses. In experiment data are given as mean+SEM and were analyzed by the Student or ANOVA tests.
Anti-tumoural Efficacy of Targeted Radionuclide Therapy. To assess the therapeutic efficacy of compound [^131I]11 in C57BL/6J mice bearing subcutaneous B16F0 melanoma cells, we injected twice 18.5 MBq [^131I]11 into group of 10 mice. […] The body weight of mice in all groups was stable (data not shown). The weight of tumours at 19 days were 2.29±1.03 g and 0.72±0.28 g respectively for controls and treated.

CCN(CCNC(=O)c1cnc2cc(I)ccc2n1)CCNc1cccc(F)n1.Cl.Cl
melting point: 99 to 101 °C (dec.)

CCN(CC)CCNC(=O)c1cnc2cc([125I])ccc2n1 [[^125I]ICF01012, reference compound]
Radioactive concentration in tumour (tumoural uptake) (B16 F0 murine melanoma; 1 H post injection): 21.8 ± 6.6 % ID/g
Radioactive concentration in tumour (tumoural uptake) (B16 F0 murine melanoma; 3 H post injection): 26.2 ± 6.6 % ID/g and 26.3 ± 6.6 % ID/g
Radioactive concentration in tumour (tumoural uptake) (B16 F0 murine melanoma; 6 H post injection): 29.6 ± 8.4 % ID/g
Radioactive concentration in tumour (tumoural uptake) (B16 F0 murine melanoma; 24 H post injection): 28.0 ± 8.1 % ID/g and 28.0 ± 8.2 % ID/g
Radioactive concentration in tumour (tumoural uptake) (B16 F0 murine melanoma; 72 H post injection): 12.3 ± 3.7 % ID/g
Radioactive concentration in tumour (tumoural uptake) (B16 F0 murine melanoma; 120 H post injection): 7.3 ± 3.6 % ID/g
Radioactive concentration in tumour (tumoural uptake) (B16 F0 murine melanoma; 168 H post injection): 3.4 ± 0.3 % ID/g
Radioactive concentration in tumour (tumoural uptake) (B16 F0 murine melanoma; 240 H post injection): 1.9 ± 0.4 % ID/g
Radioactive concentration in tumour (B16F0 melanoma tumour [1]; 1 H): 14.9 ± 5.7 % ID/g
Radioactive concentration in tumour (B16F0 melanoma tumour [1]; 3 H): 28.1 ± 8.9 % ID/g
Radioactive concentration in tumour (B16F0 melanoma tumour [1]; 6 H): 29.9 ± 2.8 % ID/g
Radioactive concentration in tumour (B16F0 melanoma tumour [1]; 24 H): 29.7 ± 3.1 % ID/g
Radioactive concentration in tumour (B16F0 melanoma tumour [1]; 72 H): 11.4 ± 2.6 % ID/g
Radioactive concentration in tumour (B16F0 melanoma tumour [2]; 1 H): 17 ± 11.1 % ID/g
Radioactive concentration in tumour (B16F0 melanoma tumour [2]; 3 H): 27.7 ± 7.0 % ID/g
Radioactive concentration in tumour (B16F0 melanoma tumour [2]; 6 H): 36.4 ± 7.6 % ID/g
Radioactive concentration in tumour (B16F0 melanoma tumour [2]; 24 H): 21.7 ± 10.8 % ID/g
Radioactive concentration in tumour (B16F0 melanoma tumour [2]; 72 H): 12.5 ± 1.6 % ID/g

CCN(CC)Cc1ccnc(F)c1CNC(=O)c1cnc2cc(I)ccc2n1 [Compound 91, N-[[4-(N,N-diethylaminomethyl)-2-fluoropyridin-3-yl]methyl]-6-iodoquinoxaline-2-carboxamide]
melting point: 147 to 149 °C

CCN(CC)CCNC(=O)c1cc(I)cc2c(F)ccnc12 [Compound 102, N-[2-(diethylamino)ethyl]-4-fluoro-6-iodoquinoline-8-carboxamide]
melting point: 80 °C and 79 to 81 °C

CCN(CCNC(=O)c1ccc2cc(I)ccc2c1)CCOc1cccnc1F.Cl
melting point: 157 to 159 °C

CCN(CCNC(=O)c1cnc2cc([131I])ccc2n1)CCOc1cccnc1F [[^131I]11, [^131I]N-[2-[N-ethyl-N-[2-(2-fluoropyridin-3-yloxy)ethyl]amino]ethyl]-6-iodoquinoxaline-2-carboxamide dihydrochloride salt]
Weight of tumours at 19 days ([3]; 2×18.5 MBq i.v. at days 6 and 10, controls 2.29±1.03 g, p=0.01): 0.72 ± 0.28 g
Tumour doubling time ([3]; 2×18.5 MBq i.v. at days 6 and 10 after tumour implantation, untreated 2.82±0.30 days): 3.83 ± 0.34 days
Body weight of mice ([3]; all groups, data not shown): stable
Ratio T/C of tumour weight at 19 days ([3]; treated vs controls): 0.31
Effect on B16F0 tumoural growth ([3]; tumour volume, p<0.001 vs untreated): significantly slowed the B16F0 tumoural growth

CCN(CCNC(=O)c1ccc2cncc(I)c2n1)CCOc1cccnc1F.Cl.Cl
melting point: 131 to 133 °C (dec.)

CCN(CCNC(=O)c1cn2cc(I)ccc2n1)CCOc1cccnc1F.Cl.Cl
melting point: 143 to 145 °C

CCN(CC)CCNC(=O)c1cnc2ccc(I)cc2c1F [Compound 96, N-[2-(diethylamino)ethyl]-4-fluoro-6-iodoquinoline-3-carboxamide]
melting point: 88 to 90 °C and 89 °C

CCN(CCNC(=O)c1ccc2cc(I)ccc2n1)CCOc1cccnc1F.Cl.Cl
melting point: 99 to 101 °C (dec.)

CCN(CCNC(=O)c1ccnc(F)c1)CCNC(=O)c1cnc2cc(I)ccc2n1 [Compound 39, N-[2-[N-ethyl-N-[2-[[(2-fluoropyridin-4-yl)carbonyl]amino]ethyl]amino]ethyl]-6-iodoquinoxaline-2-carboxamide]
melting point: 146 to 148 °C

CCN(CCNC(=O)c1cccc2nc3cc(I)ccc3nc12)CCOc1cccnc1F.Cl.Cl
melting point: 127 to 129 °C (dec.)

CCN(CC)Cc1ccnc(F)c1CNC(=O)c1cnc2cc([125I])ccc2n1.Cl.Cl [[^125I]92]
Radioactive concentration in tumour (tumoural uptake) (B16 F0 murine melanoma; 1 H post injection): 5.6 ± 2.0 % ID/g
Radioactive concentration in tumour (tumoural uptake) (B16 F0 murine melanoma; 3 H post injection): 6.5 ± 3.2 % ID/g
Radioactive concentration in tumour (tumoural uptake) (B16 F0 murine melanoma; 6 H post injection): 6.7 ± 1.9 % ID/g
Radioactive concentration in tumour (tumoural uptake) (B16 F0 murine melanoma; 24 H post injection): 6.4 ± 1.8 % ID/g
Radioactive concentration in tumour (tumoural uptake) (B16 F0 murine melanoma; 72 H post injection): 4.1 ± 1.5 % ID/g
Radioactive concentration in tumour (tumoural uptake) (B16 F0 murine melanoma; 120 H post injection): 2.4 ± 0.7 % ID/g
Radioactive concentration in tumour (tumoural uptake) (B16 F0 murine melanoma; 168 H post injection): 1.5 ± 0.4 % ID/g
Radioactive concentration in tumour (tumoural uptake) (B16 F0 murine melanoma; 240 H post injection): 0.8 ± 0.3 % ID/g
Radioactive concentration in tumour (tumoural uptake) (B16 F0 murine melanoma; 360 H (15 days) post injection): 0.7 ± 0.1 % ID/g

CCN(CC)CCNC(=O)c1cc(F)c2cc(I)ccc2n1 [Compound 106, N-[2-(diethylamino)ethyl]-4-fluoro-6-iodoquinoline-2-carboxamide]
melting point: 59 °C and 58 to 60 °C

CCN(CCNC(=O)c1ccnc(F)c1)CCNC(=O)c1cnc2cc(I)ccc2n1.Cl.Cl
melting point: 157 to 159 °C

CCN(CCNC(=O)c1cnc2cc(I)ccc2n1)CCNc1cccc(Br)n1 [Compound 63, N-[2-[N-[2-[(6-bromopyridin-2-yl)amino]ethyl]-N-(ethyl)amino]ethyl]-6-iodoquinoxaline-2-carboxamide]
melting point: 49 to 51 °C and 50 °C
